Test results as given in US20040110265A1, “Recovery of enzyme activity from enveloped viruses” (priority 2001, published 2004).

What was measured:
Format in all cases: biochemical
[1] = system: unidentified RT activity from human plasma; test: RT assay (Cavidi HS-kit Lenti RT) with added components, human plasma polymerase; settings: 12 ng odT, 100% = no addition
Description: (§1) The effect of addition of indicated components to RT reaction mixture devoid of primer (Cavidi HS-kit Lenti RT) was investigated. EDTA plasma from two healthy blood donors (1 μl/assay), recombinant HIV 1 RT or FIV RT of cell culture origin was used as enzyme.

recombinant HIV 1 RT = biological target: T1, recombinant HIV 1 RT (Human immunodeficiency virus type 1 group M subtype B, UniProt P04585); test: RT assay (Cavidi HS-kit Lenti RT) with added components, recombinant HIV 1 RT; settings: 12 ng odT, 100% = no addition
T1 construct: recombinant HIV 1 RT or FIV RT of cell culture origin was used as enzyme
Description: as §1

[2] = system: FIV RT of cell culture origin; test: RT assay (Cavidi HS-kit Lenti RT) with added components, FIV RT; settings: 12 ng odT, 100% = no addition
Description: as §1

human plasma polymerase [3] = test: Resurrection of plasma polymerase activity after treatment with cysteine-modifying agents; settings: for Polymerase activity after second incubation with indicated substance (% of control): no destroying agent in first incubation; for Conditions required to reactivate polymerase activity treated with the agent: 3 mM agent, then reactivating substances; for Polymerase activity after second incubation with DTT (% of control) / Polymerase activity after second incubation with MSA (% of control) / Polymerase activity after second incubation with cysteine (% of control) / Polymerase activity after second incubation with glutathione (% of control): 3 mM destroying agent first
Description: A set of human plasma samples (60% plasma in water) was first incubated with 3 mM of indicated cysteine-modifying substance or water (as control) at room temperature for 1 hour. Serial dilutions of five potentially reactivating substances were then added and the samples were incubated for another hour. Each sample was finally diluted 1:20 and residual RT activity was determined with Cavidi® HS kit Lenti RT. The total reduction in substance concentration between sample incubation and RT assay was 200 times. The RT activities recovered were recalculated into percent of the activity of a control consisting of plasma incubated in absence of additions during both incubation steps.

human plasma polymerase [4] = test: Elimination of plasma polymerase without purification (substance, then cysteamine); settings: one hour at room temperature, then 20 mM cysteamine; no purification
Description: A) EDTA plasma from a healthy blood donor, B) FIV virus diluted in inactivated FCS (devoid of RT activity) or C) in Dulbeco minimal essential medium with 5% FCS were diluted 1:1 and incubated with indicated concentration of 5,5′-dithiobis-(2-nitrobensoic acid) for one hour at room temperature (20° C.). Each sample was then serially diluted in fourfold steps in conditioning buffer (B). Cysteamine to a final concentration of 20 mM was then added to all samples and the set was incubated for another hour at room temperature. The RT activity of each sample was then determined using Cavidi® HS kit Lenti RT. 15 μl of each sample was added to 135 μl reaction mixture giving a final cysteamine concentration in assay of 2 mM. The RT activity recovered at the three first dilutions corresponding to 7.5, 1.9 and 0.5 μl sample per RT assay was recalculated into percentage of a control incubated in absence of substance and plotted against the substance concentration, see FIG. 6.

human plasma RT = test: Selective destruction of endogenous RT activity in plasma, protocol I; settings: EDTA plasma with disrupted lymphocytes, 1 hour at room temperature
Description: EDTA plasma with disrupted lymphocytes from a healthy blood donor and FIV diluted in inactivated foetal calf serum (totally devoid of plasma RT activity) were incubated for 1 hour at room temperature with indicated concentration of: A) 5,5′-dithiobis-(2-nitrobensoic acid), B) thimerosal. The samples were separated according to “Protocol for determination of retroviral RT from material which contains RT blocking antibodies”. The RT activities recovered were determined with an RT assay (Cavidi HS-kit Lenti RT).

[5] = 2.5 10^-6 M final concentration in RT assay
[6] = 1 mM final concentration in RT assay
[7] = 0.1 M final concentration in RT assay

SMILES	Activity of indicated enzyme in RT assay, plasma 1 [1, 5] [%]	Activity of indicated enzyme in RT assay, plasma 2 [1, 5] [%]	Activity of indicated enzyme in RT assay, HIV (recombinant HIV 1 RT; [5]) [%]	Activity of indicated enzyme in RT assay, FIV [2, 5] [%]	Polymerase activity after second incubation with indicated substance (% of control) (human plasma polymerase [3]; 1.1 mM substance) [%]	Polymerase activity after second incubation with indicated substance (% of control) (human plasma polymerase [3]; 3.3 mM substance) [%]	Polymerase activity after second incubation with indicated substance (% of control) (human plasma polymerase [3]; 10 mM substance) [%]	Polymerase activity after second incubation with indicated substance (% of control) (human plasma polymerase [3]; 30 mM substance) [%]	further results
Nc1ccn([C@H]2CC[C@@H](COP(=O)(O)OP(=O)(O)OP(=O)(O)O)O2)c(=O)n1 [ddCTP]	94	103	89	75					
O=C([O-])P(=O)(O)O.O=C([O-])P(=O)(O)O.O=C([O-])P(=O)(O)O.[Na+].[Na+].[Na+] [PFA, trisodium phosophonoformate]									Activity of indicated enzyme in RT assay, plasma 1 [1, 6]: 92%; Activity of indicated enzyme in RT assay, plasma 2 [1, 6]: 94%; Activity of indicated enzyme in RT assay, HIV (recombinant HIV 1 RT; [6]): 1%
O[C@H](CS)[C@H](O)CS (racemic) [DTT, Dithiothreitol]					260	613	767	860	
O=C(O)c1cc(SSc2ccc([N+](=O)[O-])c(C(=O)O)c2)ccc1[N+](=O)[O-] [5,5′-Dithiobis-(2-nitrobenzoic acid)]									Conditions required to reactivate polymerase activity treated with the agent (human plasma polymerase [3]): required strongly reductive low molecular weight thiols for activation; Polymerase activity after second incubation with DTT (% of control) (human plasma polymerase [3]; 1.1 mM DTT): 0%; Polymerase activity after second incubation with MSA (% of control) (human plasma polymerase [3]; 1.1 mM MSA): 0%; Polymerase activity after second incubation with DTT (% of control) (human plasma polymerase [3]; 3.3 mM DTT): 1%; Polymerase activity after second incubation with MSA (% of control) (human plasma polymerase [3]; 3.3 mM MSA): 0%; Polymerase activity after second incubation with DTT (% of control) (human plasma polymerase [3]; 10 mM DTT): 143%; Polymerase activity after second incubation with MSA (% of control) (human plasma polymerase [3]; 10 mM MSA): 0%; Polymerase activity after second incubation with DTT (% of control) (human plasma polymerase [3]; 30 mM DTT): 122%; Polymerase activity after second incubation with MSA (% of control) (human plasma polymerase [3]; 30 mM MSA): 0%; Polymerase activity after second incubation with cysteine (% of control) (human plasma polymerase [3]; 30 mM cysteine): 7%; Polymerase activity after second incubation with glutathione (% of control) (human plasma polymerase [3]; 30 mM glutathione): 2%; Concentration after which human plasma polymerase activity was eliminated (human plasma polymerase [4]): above 0.47 mM; Concentration that totally eliminated the human plasma RT activity (human plasma RT): above 0.4 mM
Nc1nc2c(ncn2[C@H]2CC[C@@H](COP(=O)(O)OP(=O)(O)OP(=O)(O)O)O2)c(=O)[nH]1 [ddGTP]	103	109	94	93					
Cc1ccc(S(=O)(=O)[N-]Cl)cc1.[Na+] [Chloramine T]									Conditions required to reactivate polymerase activity treated with the agent (human plasma polymerase [3]): required strongly reductive low molecular weight thiols for activation; Polymerase activity after second incubation with DTT (% of control) (human plasma polymerase [3]; 1.1 mM DTT): 2%; Polymerase activity after second incubation with MSA (% of control) (human plasma polymerase [3]; 1.1 mM MSA): 6%; Polymerase activity after second incubation with DTT (% of control) (human plasma polymerase [3]; 3.3 mM DTT): 51%; Polymerase activity after second incubation with MSA (% of control) (human plasma polymerase [3]; 3.3 mM MSA): 0%; Polymerase activity after second incubation with DTT (% of control) (human plasma polymerase [3]; 10 mM DTT): 80%; Polymerase activity after second incubation with MSA (% of control) (human plasma polymerase [3]; 10 mM MSA): 1%; Polymerase activity after second incubation with cysteine (% of control) (human plasma polymerase [3]; 10 mM cysteine): 4%; Polymerase activity after second incubation with glutathione (% of control) (human plasma polymerase [3]; 10 mM glutathione): 3%; Polymerase activity after second incubation with DTT (% of control) (human plasma polymerase [3]; 30 mM DTT): 94%; Polymerase activity after second incubation with MSA (% of control) (human plasma polymerase [3]; 30 mM MSA): 0%; Polymerase activity after second incubation with cysteine (% of control) (human plasma polymerase [3]; 30 mM cysteine): 9%
[Cl-].[K+] [KCl]									Activity of indicated enzyme in RT assay, plasma 1 [1, 7]: 17%; Activity of indicated enzyme in RT assay, plasma 2 [1, 7]: 20%; Activity of indicated enzyme in RT assay, HIV (recombinant HIV 1 RT; [7]): 87%; Activity of indicated enzyme in RT assay, FIV [2, 7]: 110%
Nc1ncnc2c1ncn2[C@H]1CC[C@@H](COP(=O)(O)OP(=O)(O)OP(=O)(O)O)O1 [ddATP]	94	105	90	79					
Cc1cn([C@H]2CC[C@@H](COP(=O)(O)OP(=O)(O)OP(=O)(O)O)O2)c(=O)[nH]c1=O [ddTTP]	7	9	18	28					
NCCS [cysteamine]					15	9	6	6	
N[C@@H](CS)C(=O)O [cysteine]					72	82	145	198	
N[C@@H](CCC(=O)N[C@@H](CS)C(=O)NCC(=O)O)C(=O)O [glutathione]					72	78	80	13	
O=C(O)CC(S)C(=O)O (centres unmarked) [MSA, Mercaptosuccinic acid]					109	110	64	7	
